From the supplement of paper PMC10011410
± gives the standard deviation of the averaged measurements.

Columns and labels:
[1] = test system: U-2 OS; assay: cell painting activity score (Mahalanobis distance from DMSO wells); higher = stronger morphological phenotype; conditions: 24 h
Method: (§1)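 Cell painting in U-2 OS cells (384-well, about 1,500 cells per well), compound exposure 24 h, usually six 2-fold concentrations from 20 to 0.625 uM (some compounds higher or lower). Relative cell count is the cell number per well relative to DMSO wells. Activity score is the Mahalanobis distance of the morphological profile from DMSO control wells. Mean of four technical replicate plates.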

[2] = test system: U-2 OS; assay: relative cell count vs DMSO (cell painting) (fraction of DMSO control); higher = more cells remaining (less cytotoxic); conditions: 24 h
Method: as §1

Row | SMILES | cell painting activity score ([1]; 0.625 µM) | cell painting activity score ([1]; 1.25 µM) | cell painting activity score ([1]; 2.5 µM) | cell painting activity score ([1]; 5 µM) | cell painting activity score ([1]; 10 µM) | cell painting activity score ([1]; 20 µM) | relative cell count ([2]; 0.625 µM) | relative cell count ([2]; 1.25 µM) | relative cell count ([2]; 2.5 µM) | relative cell count ([2]; 5 µM) | relative cell count ([2]; 10 µM) | relative cell count ([2]; 20 µM) | further results
1 | CCN(CC)CCCC(C)Nc1ccnc2cc(Cl)ccc12 (configuration not stated) | 4.84 | 5.94 | 4.8 | 4.43 | 4.73 | 6.72 | 1.2 | 1.12 | 1.09 | 1.19 | 1.08 | 1.09 | –
2 | CN[C@@H]1C[C@H]2O[C@@](C)([C@@H]1OC)n1c3ccccc3c3c4c(c5c6ccccc6n2c5c31)C(=O)NC4 | – | 24.2 ± 2.7 | – | 25.5 ± 2.6 | – | 24.1 ± 2 | – | 0.095 ± 0.0065 | – | 0.127 ± 0.042 | – | 0.128 ± 0.039 | cell painting activity score ([1]; 0.019532 µM): 16.8 ± 1.3; cell painting activity score ([1]; 0.07812 µM): 19.8 ± 1.5; cell painting activity score ([1]; 0.3124 µM): 21.2; cell painting activity score ([1]; 0.3126 µM): 25.8 ± 2.3; relative cell count ([2]; 0.019532 µM): 0.757 ± 0.098; relative cell count ([2]; 0.07812 µM): 0.467 ± 0.25; relative cell count ([2]; 0.3124 µM): 0.294; relative cell count ([2]; 0.3126 µM): 0.0507 ± 0.0014
3 | CC(C)C[C@@H](C=O)NC(=O)[C@@H](CC(C)C)NC(=O)[C@H](CC(C)C)NC(=O)OCc1ccccc1 | 4.19 | 4.34 | 5.35 | 5.4 | 3.89 | 7.43 | 1 | 0.959 | 0.944 | 0.993 | 0.986 | 0.909 | –
4 | CCN(CC)CCNC(=O)c1c(C)[nH]c(/C=C2\C(=O)Nc3ccc(F)cc32)c1C | 11.2 | 11.5 | 11.3 | 12.4 | 14.5 | 25.1 | 0.983 | 0.945 | 0.983 | 0.917 | 0.831 | 0.503 | –
5 | CCN1C(=O)C=CC1=O | 4.77 | 5.69 | 7.04 | 9.18 | 20.6 | 26.6 | 0.938 | 0.928 | 0.891 | 0.724 | 0.254 | 0.0684 | cell painting activity score ([1]; 40 µM): 5.94; cell painting activity score ([1]; 80 µM): 6.33; relative cell count ([2]; 40 µM): 0.911; relative cell count ([2]; 80 µM): 0.885
6 | CC(C)(C)C1=CC(=O)C=CC1=O | 8.46 | 9.82 | 11.5 | 13.4 | 20.3 | 17.6 | 0.952 | 0.904 | 0.867 | 0.435 | 0.32 | 0.124 | –
7 | [Cl][Pt+2][Cl].[NH2-].[NH2-] | – | – | – | – | – | – | – | – | – | – | – | – | cell painting activity score ([1]; 0.2062 µM): 5.52; cell painting activity score ([1]; 0.4124 µM): 4.94; cell painting activity score ([1]; 0.825 µM): 3.93; cell painting activity score ([1]; 1.65 µM): 5.77; cell painting activity score ([1]; 3.3 µM): 3.26; cell painting activity score ([1]; 6.6 µM): 9.14; relative cell count ([2]; 0.2062 µM): 0.954; relative cell count ([2]; 0.4124 µM): 0.964; relative cell count ([2]; 0.825 µM): 0.902; relative cell count ([2]; 1.65 µM): 0.701; relative cell count ([2]; 3.3 µM): 0.937; relative cell count ([2]; 6.6 µM): 0.666
8 | C=CCNC1=C2C[C@@H](C)C[C@H](OC)[C@H](O)[C@@H](C)/C=C(\C)[C@H](OC(N)=O)[C@@H](OC)/C=C\C=C(/C)C(=O)NC(=CC1=O)C2=O | 16.6 | 19.1 | 19.1 | 19.1 | 19.2 | 18.3 | 0.814 | 0.697 | 0.61 | 0.586 | 0.589 | 0.549 | –
9 | O=C([O-])C(=O)[O-].[NH-][C@@H]1CCCC[C@H]1[NH-].[Pt+4] | 4.3 | 8.95 | 20.4 | 20 | 19.8 | 22.1 | 0.86 | 0.786 | 0.66 | 0.501 | 0.35 | 0.203 | –
10 | C[C@H](CC[C@@]1(O)O[C@H]2C[C@H]3[C@@H]4CC=C5C[C@@H](O[C@@H]6O[C@H](CO)[C@@H](O[C@@H]7O[C@@H](C)[C@H](O)[C@@H](O)[C@H]7O)[C@H](O)[C@H]6O[C@@H]6O[C@@H](C)[C@H](O)[C@@H](O)[C@H]6O)CC[C@]5(C)[C@H]4CC[C@]3(C)[C@H]2[C@@H]1C)CO[C@@H]1O[C@H](CO)[C@@H](O)[C@H](O)[C@H]1O | 14.9 | 14.4 | 15.1 | 16.6 | 21 | 22.7 | 0.811 | 0.808 | 0.734 | 0.502 | 0.0412 | 0.0114 | –
11 | Cc1ccc(S(=O)(=O)/C=C/C#N)cc1 | 10.4 | 12.9 | 16.7 | 18.3 | 21 | 23.7 | 0.923 | 0.942 | 0.678 | 0.485 | 0.231 | 0.286 | –
12 | O=C1Cc2c([nH]c3ccc(Br)cc23)-c2ccccc2N1 | 7.76 | 10.8 | 12.7 | 13.7 | 14.7 | 13.6 | 0.977 | 0.959 | 0.911 | 0.835 | 0.557 | 0.164 | –
13 | N#CC(C#N)=NNc1cccc(Cl)c1 | 5.76 | 5.02 | 7.58 | 9.31 | 13.4 | 16.2 | 0.975 | 0.949 | 0.98 | 0.897 | 0.711 | 0.491 | –
14 | COC1=C(OC)C(=O)c2ccccc2C1=O | 7.97 | 8.63 | 10.7 | 18.9 | 21.2 | 24.7 | 0.99 | 0.895 | 0.81 | 0.489 | 0.46 | 0.149 | –
15 | COS(=O)(=O)O.C[n+]1c2ccccc2nc2ccccc21 | 4.8 | 5.06 | 9.91 | 14.3 | 19.6 | 23.1 | 0.956 | 0.92 | 0.807 | 0.265 | 0.282 | 0.0549 | –
16 | O=C(O)C1(C(=O)O)CCC1.[NH2-].[NH2-].[Pt+2] | 4.1 | 4.15 | 4.49 | 4.29 | 5.7 | 6.66 | 0.92 | 0.853 | 0.786 | 0.855 | 0.844 | 0.814 | –
17 | O=C1C=C(Cl)C(=O)c2ccccc21 | 7.9 | 18.1 | 19.4 | 17.9 | 22.2 | 25.4 | 0.745 | 0.492 | 0.216 | 0.29 | 0.169 | 0.267 | –
18 | O=C(Nc1ccc([N+](=O)[O-])cc1Cl)c1cc(Cl)ccc1O | 5.54 | 8.61 | 10.3 | 16 | 17.7 | 14.8 | 1.13 | 1.05 | 1.06 | 0.922 | 0.808 | 0.753 | –
19 | CCc1c2c(nc3ccc(O)cc13)-c1cc3c(c(=O)n1C2)COC(=O)[C@]3(O)CC | 12 | 12.3 | 12.7 | 12.3 | 12.1 | 14.9 | 0.523 | 0.525 | 0.515 | 0.467 | 0.446 | 0.482 | –
20 | CO[C@@H]1[C@H](N(C)C(=O)c2ccccc2)C[C@H]2O[C@]1(C)n1c3ccccc3c3c4c(c5c6ccccc6n2c5c31)C(=O)NC4 | 13.9 | 15.2 | 19.8 | 22.9 | 23.7 | 24.4 | 1.02 | 0.757 | 0.456 | 0.362 | 0.347 | 0.354 | –
21 | COc1c(O)c2c(=O)cc3c4c5c(cc(=O)c6c(O)c(OC)c(CC(C)O)c(c(c1CC(C)O)c24)c65)OCO3 (configuration not stated) | 4.68 | 7.7 | 10.5 | 13 | 12 | 13.9 | 0.971 | 0.918 | 0.859 | 0.682 | 0.499 | 0.366 | –
22 | CC(C)(C)c1cc(O)ccc1O | 4.14 | 4.2 | 5.45 | 5.28 | 4.94 | 7.97 | 0.908 | 0.958 | 0.948 | 0.913 | 0.945 | 0.949 | –
23 | CCCCCCCCCCCCCCCCCCOP(=O)([O-])OC1CC[N+](C)(C)CC1 | 3.72 | 3.21 | 3.03 | 3.98 | 3.76 | 4.51 | 1.02 | 1.03 | 1.11 | 1.05 | 1.05 | 1.02 | –
